Measured values taken from paper PMC3755965, “A Small Peptide with Therapeutic Potential for Inflammatory Acne Vulgaris” (PLoS ONE, 2013).
≈ marks a conversion by molar mass, not a printed value. Where a SMILES comes first, the peptide text is derived from it.

Legend:
[1] = tested on: P. acnes (ATCC6919)-induced ear swelling; test: P. acnes-induced ear swelling in mice; assay type: in vivo, Kunming mice; settings: mean of four experiments
P. acnes (ATCC6919) = test: P. acnes colonization within mouse ear (CFU count); assay type: in vivo, Kunming mice; settings: for P. acnes colonized within the ear: mean of four experiments
Experimental: As described previously, P. acnes (ATCC6919) was grown to the exponential-phase in BHI broth and then centrifuged at 1000 g for 10 min. The bacterium pellet was then washed twice and re-suspended in 0.9% salt water (5×10^8 CFU/ml). Kunming mice (20 ± 2 g) were anesthetised by intraperitoneal (IP) administration of ketamine (50 mg/kg) and xylazine (15 mg/kg), and then 20 µl P. acnes solution was intradermally injected into left ears of the mice. Right ears received the same volume of 0.9% salt water. Placebo or 0.2% LZ1 gel (Polyethylene Glycol (PEG) 400: PEG 4000, 1:1) was applied on the surface of right ear skin after injection with P. acnes or saline. […] Ear thickness after 24 h bacterial injection was measured using a micro caliper.
To determine P. acnes number in the ear, the left ear was cut off after 24 h bacterial injection and the mice were sacrificed immediately by cervical dislocation. The ears were wiped to remove gel and then homogenized in 0.9% salt water (1 ml per ear) with a hand tissue grinder. CFUs of P. acnes in the ear were enumerated by plating serial dilutions of the homogenate on BHI plates and the bacterial numbers were counted after 72 h incubation under anaerobic conditions at 37°C.
To further investigate the therapeutical effect, the increase in ear thickness and the P. acnes number in the ear after bacterial injection were determined continuously on day 2 to day 5 as described above. […] All the experimental protocols to use animals were approved by the Animal Care and Use Committee at Kunming Institute of Zoology, Chinese Academy of Sciences.

IL-1β = IL-1β in ear homogenate, ELISA; assay type: in vivo, Kunming mice
Experimental: (§1) Ears of Kunming mice were injected with live P. acnes (ATCC 6919) as described above. The ear was excised on day 1 to day 5 after bacterial injection respectively, and then homogenized in 0.9% salt water (1 ml per ear) with a hand tissue grinder. The supernatant was collected after the centrifugation at 2000 × g for 10 min and then was used for cytokine measurement. The concentration of TNF-α and IL-1β was measured by using enzyme-linked immunosorbent assay kits (Excell Bio, Shanghai, China).

TNF-α = TNF-α in ear homogenate, ELISA; assay type: in vivo, Kunming mice; settings: day 1 to day 5, epicutaneous 0.2% gel, in words
Experimental: as §1

[2] = tested on: infiltrated inflammatory cells; test: Histological check of mouse ears (HE stain); assay type: in vivo, Kunming mice; settings: 24 h after P. acnes challenge, epicutaneous 0.2% gel, in words
Excerpt: Ears of Kunming mice were excised and fixed in neutral-buffered 10% formalin solution and embedded in paraffin by routine procedures. The slides were cut at approximately 4 µm and stained routinely with haematoxylin and eosin (HE). Images were obtained using a Nikon Eclipse 80i microscope (Nikon, Japan).

[3] = Effect of human plasma on antibacterial activity (inhibition zone); assay type: in vitro ADME; settings: 100 µM, 37°C, inhibition zone on P. acnes ATCC6919, S. epidermidis 09A3726, S. aureus 09B2499, three experiments
Experimental: LZ1 or human cathelicidin antimicrobial peptide LL-37 (control) was mixed with human plasma (final concentration 100 µM) for 0, 0.5, 1, 2, 4, 6 and 8 hours at 37°C, respectively. Residual antibacterial activity was evaluated by using 10 µl aliquot of the mixture to measure inhibitory zone on bacterial growth on BHI or LB broth containing 0.7% agar as previously described. The diameters of inhibition zones were recorded after 72-hour incubation for P. acnes and 24-hour incubation for S. epidermidis and S. aureus, respectively.

[4] = tested on: P. acnes (IS, DR), clinically isolated strain with clindamycin resistance; settings: clindamycin-resistant clinical isolate; BHI broth, anaerobic, 37°C, 72 h, A600; mean of three independent experiments in duplicates; ND = no detectable activity
Experimental: (§2) The strains of P. acnes were cultured in brain heart infusion (BHI) broth (HKM, Guangzhou, China) with 1% glucose at 37°C under an anaerobic atmosphere using MGC Anaeropack systems (Mitsubishi, Gas Chemical Co., Inc, Japan), respectively. […] S. epidermidis (09A3726 and 09B2490) and S. aureus (ATCC 2592) were grown in LB (Luria-Bertani) broth as our previous report.
(§3) Briefly, samples were prepared as a stock solution in 0.9% salt water at a series of concentration. 890 µl special broth (BHI broth for P. acnes, LB broth for S. epidermidis and S. aureus), 100 µl bacterial suspension (10^8 CFU/ml) and 10 µl test sample were put together in the test tube under anaerobic conditions at 37°C for 72 h for P. acnes and under aerobic conditions at 37°C for 24 or 48 h for S. epidermidis and S. aureus. An absorbance at 600 nm was measured by a microplate reader to estimate bacterial growth. The MIC was defined as the lowest concentration of test sample completely inhibiting microorganism’s growth.

P. acnes ATCC11827 = settings: BHI broth, anaerobic, 37°C, 72 h, A600; mean of three independent experiments in duplicates; ND = no detectable activity
Experimental: as §2, §3

P. acnes ATCC6919 = settings: BHI broth, anaerobic, 37°C, 72 h, A600; mean of three independent experiments in duplicates; ND = no detectable activity
Experimental: as §2, §3

S. epidermidis 09A3726 = settings: LB broth, aerobic, 37°C, 24 or 48 h, A600; mean of three independent experiments in duplicates; ND = no detectable activity
Experimental: as §2, §3

S. epidermidis 09B2490 = settings: LB broth, aerobic, 37°C, 24 or 48 h, A600; mean of three independent experiments in duplicates
Experimental: as §2, §3

human red blood cells = settings: up to 320 µg/ml, 37°C, 30 min, A540, relative to 1% Triton X-100, mean of five experiments
Experimental: Hemolysis assay was undertaken using human red blood cells in liquid medium as our previous reports. Serial dilutions of testing sample were incubated with human red cells at 37°C. After the incubation for 30 min, the cells were centrifuged and the absorbance in the supernatant was measured at 540 nm. Maximum hemolysis was determined by adding 1% Triton X-100 to a sample of cells. Hemolysis of testing samples was calculated as the percentage of cytotoxicity of Triton X-100.

S. aureus 09B2499 = settings: LB broth, aerobic, 37°C, 24 or 48 h, A600; mean of three independent experiments in duplicates
[5] = tested on: Human HaCaT keratinocyte cells; settings: 20 to 200 µg/ml, 24-h treatment, MTT, A570, mean of five experiments
Experimental: Human HaCaT keratinocyte cells (1×10^5 cells/ml, obtained from Cell Bank of Kunming Institute of Zoology, Chinese Academy of Sciences) were cultured in 96-well plates with Dulbecco’s modified Eagle’s medium (DMEM, Gibco) containing 10% fetal calf serum and penicillin (100 u/ml)-streptomycin (100 mg/ml) at 37°C in a humidified 5% CO2 atmosphere. Cell viability was evaluated by conventional 3-(4, 5-dimethyl-2-thiazolyl)-2, 5-diphenyl-2H-tetrazolium bromide (MTT) reduction assays. After a 24-h treatment by testing sample, 20 µl of MTT (5 mg/ml) was added to each well. The MTT solution was then removed and 200 µl dimethyl sulfoxide (DMSO) was added to solubilize the MTT-formazan cristals in living cells. The absorbance at 570 nm of the resulting solution was measured. The experiments were performed in triplicate.

Question: For `CCC[C@@H]1C[C@@H](C(=O)N[C@@H]([C@H]2O[C@H](SC)[C@H](OP(=O)(O)O)[C@@H](O)[C@H]2O)[C@H](C)Cl)N(C)C1` [clindamycin, clindamycin phosphate], which “ear thickness, % of the control (un-challenged)” value (from here on “ear thickness, % of the control”) ([1]; day 1 after P. acnes injection, 0.2% gel epicutaneous) is on record?
Answer: The value was 147%.

Question: And the “ear thickness, % of the control” value ([1]; day 2, 0.2% gel epicutaneous once per day)?
Answer: Its value is 145%.

Question: And the “ear thickness, % of the control” value ([1]; day 3, 0.2% gel epicutaneous once per day)?
Answer: The value was 130%.

Question: And the “ear thickness, % of the control” value ([1]; day 4, 0.2% gel epicutaneous once per day)?
Answer: Its value is 125%.

Question: And the “ear thickness, % of the control” value ([1]; day 5, 0.2% gel epicutaneous once per day)?
Answer: The value was 105%.

Question: What about the “P. acnes colonized within the ear” value (P. acnes (ATCC6919); Day 1, 0.2% gel epicutaneous) of the same compound?
Answer: The value was 360±77 10^3 CFU per ear.

Question: And the “P. acnes colonized within the ear” value (P. acnes (ATCC6919); Day 2, 0.2% gel epicutaneous once per day)?
Answer: Its value is 32±4.1 10^3 CFU per ear.

Question: What about the “P. acnes colonized within the ear” value (P. acnes (ATCC6919); Day 3, 0.2% gel epicutaneous once per day) of the same compound?
Answer: Its value is 14±1.7 10^3 CFU per ear.

Question: What about the “P. acnes colonized within the ear” value (P. acnes (ATCC6919); Day 4, 0.2% gel epicutaneous once per day) of the same compound?
Answer: The value was 6±0.5 10^3 CFU per ear.

Question: What about the “P. acnes colonized within the ear” value (P. acnes (ATCC6919); Day 5, 0.2% gel epicutaneous once per day) of the same compound?
Answer: Its value is 1.5±0.1 10^3 CFU per ear.

Question: And the “reduction in the number of P. acnes colonized within the ear” value (P. acnes (ATCC6919); day 2, versus vehicle)?
Answer: Its value is 58.9%.

Question: And the “reduction in the number of P. acnes colonized within the ear” value (P. acnes (ATCC6919); day 3, versus vehicle)?
Answer: Its value is 58.8%.

Question: What about the “reduction in the number of P. acnes colonized within the ear” value (P. acnes (ATCC6919); day 4, versus vehicle) of the same compound?
Answer: The value was 71.4%.

Question: And the “reduction in the number of P. acnes colonized within the ear” value (P. acnes (ATCC6919); day 5, versus vehicle)?
Answer: Its value is 50%.

Question: And the “IL-1β concentration in mouse ear” value (IL-1β; day 1, 1 ml saline per ear, vehicle 483, three experiments)?
Answer: The value was 346 pg/mL.

Question: And the “IL-1β concentration in mouse ear” value (IL-1β; day 2, 1 ml saline per ear, vehicle 221, three experiments)?
Answer: The value was 83 pg/mL.

Question: What about the “IL-1β concentration in mouse ear” value (IL-1β; day 3, 1 ml saline per ear, vehicle 48, three experiments) of the same compound?
Answer: Its value is 43 pg/mL.

Question: And the “IL-1β concentration in mouse ear” value (IL-1β; day 4, 1 ml saline per ear, vehicle 30, three experiments)?
Answer: The value was 45 pg/mL.

Question: And the “IL-1β concentration in mouse ear” value (IL-1β; day 5, 1 ml saline per ear, vehicle 41, three experiments)?
Answer: Its value is 46 pg/mL.

Question: What about the “effect on TNF-α secretion induced by P. acnes challenge” value (TNF-α) of the same compound?
Answer: The value was “no inhibitory effect”.

Question: And the “number of infiltrated inflammatory cells” value [2]?
Answer: Its value is “decreased infiltrated inflammatory cells”.

Question: With “LL-37: human cathelicidin antimicrobial peptide LL-37 (control)” as the compound, how does the “antibacterial activity after incubation with human plasma” value ([3]; 1 hour) read?
Answer: The value was “completely lost its antibacterial activity”.

Question: For `CC(C)[C@H](N)C(=O)N[C@@H](CCCCN)C(=O)N[C@@H](CCCNC(=N)N)C(=O)N[C@@H](Cc1c[nH]c2ccccc12)C(=O)N[C@@H](CCCCN)C(=O)N[C@@H](CCCCN)C(=O)N[C@@H](Cc1c[nH]c2ccccc12)C(=O)N[C@@H](Cc1c[nH]c2ccccc12)C(=O)N[C@@H](CCCNC(=N)N)C(=O)N[C@@H](CCCCN)C(=O)N[C@@H](Cc1c[nH]c2ccccc12)C(=O)N[C@@H](CCCCN)C(=O)N[C@@H](CCCCN)C(=O)N[C@@H](Cc1c[nH]c2ccccc12)C(=O)N[C@H](C(N)=O)C(C)C` [LZ1] (H-VKRWKKWWRKWKKWV-NH2), which MIC [4] is on record?
Answer: The MIC was 0.6 µg/mL (≈ 0.269 µM).

Question: And the MIC (P. acnes ATCC11827)?
Answer: Its MIC is 0.6 µg/mL (≈ 0.269 µM).

Question: And the MIC (P. acnes ATCC6919)?
Answer: The MIC was 0.6 µg/mL (≈ 0.269 µM).

Question: What about the MIC (S. epidermidis 09A3726) of the same compound?
Answer: Its MIC is 4.7 µg/mL (≈ 2.11 µM).

Question: What about the MIC (S. epidermidis 09B2490) of the same compound?
Answer: The MIC was 2.3 µg/mL (≈ 1.03 µM).

Question: And the hemolytic activity (human red blood cells)?
Answer: The hemolytic activity was “no more than 5.2%”.

Question: And the “antibacterial activity after incubation with human plasma” value ([3]; 8 hours)?
Answer: The value was “could not be significantly affected”.

Question: And the MIC (S. aureus 09B2499)?
Answer: The MIC was 2.3 µg/mL (≈ 1.03 µM).

Question: What about the “effects on cell viabilities (cytotoxicity)” value [5] of the same compound?
Answer: The value was “no more than 5.6%”.
